Data as given in patent publication US10967047B2, “Mitochondrial antiviral-signaling (MAVS) polypeptides and detection and use thereof” (University of Vermont and State Agricultural College, priority 2016, dated 2021).

Experiments:
Drp1 = assay: Phosphorylated Drp1 (Drp1 616p) at purified mitochondria, densitometry normalized to Cox IV; format: cell-based
Method: To activate MAVS commercially available 5′-ppp-RNA was used at a concentration of 1 μg/ml, which activates RIG-I helicase. As an alternative GOx was used as previously described [Szeto, H. H., Br J Pharmacol, 2014. 171(8): p. 2029-50]. Mitochondria were purified by anti-Tom22 magnetic beads as previously described [Perl, A., et al., Int Rev Immunol, 2004. 23(3-4): p. 293-313]. Changes in the level of Drp1^616p at mitochondria were determined by densitometry, which was normalized to the level of Cox IV (FIG. 14A-B).

MAVS = MAVS oligomerization in MEFs (semi-denaturing gel electrophoresis, immunoblot, densitometry); format: cell-based, mouse
Method: 5′ triphosphate double-stranded RNA (5′-ppp-dsRNA), a synthetic ligand for RIG-I, was purchased from InVivoGen and used at a concentration of 1 μg/mL. Mitochondria-targeted antioxidant MitoQ and the mitochondria-targeted superoxide generator MitoPQ, were gifts of M. Murphy (G. F. Kelso et al., (2001) The Journal of biological chemistry 276, 4588-4596). The control reagent TPP was purchased from Sigma. Reagents were added to cells at concentrations as indicated. GOx was purchased from Sigma and added to cultured cells at a final concentration of 0.1 U/mL. Iodoacetamide was from Thermo Fisher, and used at a final concentration of 100 μM.
Cultured MEFs or human PBMCs were lysed in a sample buffer containing 2% SDS and insoluble cell fragments were removed by centrifugation. Plasma samples derived from SLE patients were collected and stored at −20° C. until gel electrophoresis. BCA protein assay (Thermo Scientific) was used to determine protein concentrations in all samples were resolved with SDS-PAGE under denaturing conditions. Gels were transferred to PVDF membranes using a Trans-Blot Turbo Transfer System (BioRad).
SDD-AGE was performed according to a published protocol with minor modifications (Alberti et al., (2009) Cell 137, 146-158). In brief, mitochondria were resuspended in sample buffer (0.5×TBE, 10% glycerol, 2% SDS, and 0.0025% bromophenol blue) and loaded onto a vertical 1.5% agarose gel. After electrophoresis in the running buffer (1×TBE and 0.1% SDS) for 35 min with a constant voltage of 75 V at 4° C., proteins were transferred to PVDF membranes using a Trans-Blot Turbo Transfer System (BioRad) for immunoblotting.
PVDF membranes were blocked in 5% solution of nonfat powdered milk in Tris-buffered saline. Antibodies used were specific for MAVS and Actin (Santa Cruz); RIPK1 and TRAF2 (BD Biosciences); TANK, TRADD, RIG-I, and GAPDH (Cell Signaling); MDAS and COX4 (Abcam), Alexa 488 (Life Technologies), and IRF3 (Thermo Fisher), respectively. Immunoreactive proteins were visualized using HRP-labeled conjugates (Jackson Immuno Research) and developed using Clarity Western ECL substrate (Biorad). Chemiluminescence was detected and recorded using a Biorad Chemidoc instrument. Densitometric measurements were performed in Image Lab image acquisition and analysis software (Biorad).

| Compound | level of phosphorylated Drp1 at mitochondria with MitoQ pre-treatment (Drp1; same cells pre-treated with MitoQ, versus 5′-ppp-RNA or GOx alone (FIG. 14A-B)) | decrease in MAVS oligomers (MAVS; MEFs pre-treated with 100 μM MitoQ, then GOx, oligomer/monomer ratio by densitometry (FIG. 3B)) [%] | decrease in MAVS oligomerization (MAVS; MEFs pre-treated with 100 μM MitoQ, then SINV infection, densitometry (FIG. 3B)) [%] | MAVS oligomerization after pretreatment (MAVS; MEFs pretreated (100 μM) before GOx or SINV (FIG. 3A)) | level of phosphorylated Drp1 at mitochondria after MAVS activation (Drp1; 5′-ppp-RNA 1 μg/ml or GOx (FIG. 14A-B)) | induction of MAVS oligomerization without viral infection (MAVS; MEFs, substance alone (MitoPQ 1 to 10 nM, FIG. 2H; GOx, FIG. 2A)) |
| --- | --- | --- | --- | --- | --- | --- |
| COC1=C(OC)C(=O)C(CCCCCCCCCC[P+](c2ccccc2)(c2ccccc2)c2ccccc2)=C(C)C1=O.CS(=O)(=O)[O-] [MitoQ, [10-(4,5-Dimethoxy-2-methyl-3,6-dioxo-1,4-cyclohexadien-1-yl)decyl](triphenyl)phosphonium methanesulfonate] | higher levels | ≥ 80 | ~40 | reduced MAVS oligomerization | – | – |
| glucose oxidase [GOx] | – | – | – | – | lower levels of phosphorylated Drp1 at mitochondria | sufficient to induce MAVS oligomerization |
